Test results taken from the supplement of paper PMC13380429.

What was measured:
U2OS [1] = experiment: cell viability relative to DMSO; higher = less toxic; details: 72 h
Caco-2 [2] = experiment: as above; details: 72 h
Calu-3 [3] = experiment: as above; details: 72 h
Vero E6 [4] = experiment: as above; details: 72 h
HepG2 [5] = experiment: as above; details: 72 h
U2OS [6] = experiment: drug sensitivity score (DSS) for viability; higher = more toxic; extreme values may be limits of the assay; details: 72 h
Caco-2 [7] = experiment: as above; details: 72 h
Calu-3 [8] = experiment: as above; details: 72 h
Vero E6 [9] = experiment: as above; details: 72 h
HepG2 [10] = experiment: as above; details: 72 h
[11] = system: A549-ACE2 infected with SARS-CoV-2; experiment: cell count relative to DMSO; higher = less toxic; details: 24 h
[12] = system: A549-ACE2 infected with SARS-CoV-2; experiment: SARS-CoV-2 infection rate relative to DMSO; higher = more infection; details: 24 h
A549-ACE2 = experiment: drug-induced phospholipidosis relative to tamoxifen; higher = more phospholipidosis
U2OS [13] = experiment: relative viability EC50 (midpoint between 100% and the lowest measured viability); higher = less toxic; details: 72 h
Calu-3 [14] = experiment: as above; details: 72 h
[15] = system: A549-ACE2 infected with SARS-CoV-2; experiment: morphology score (similarity to uninfected cells); higher = more like uninfected cells; details: 24 h
Caco-2 [16] = experiment: relative viability EC50 (midpoint between 100% and the lowest measured viability); higher = less toxic; details: 72 h
HepG2 [17] = experiment: as above; details: 72 h
Vero E6 [18] = experiment: as above; details: 72 h

C=C1CC[C@@H]2[C@](C)(CO)[C@H](O)CC[C@@]2(C)[C@@H]1C/C=C1/C(=O)OC[C@H]1O [andrographolide]
Details	SARS-CoV-2 infection rate, [12] [%]	cell count, [11] [%]	cell viability, Caco-2 [2] [%]	cell viability, Calu-3 [3] [%]	cell viability, HepG2 [5] [%]	cell viability, U2OS [1] [%]	cell viability, Vero E6 [4] [%]	morphology score, [15]
1 nM	–	–	99.1	90.5	102	103	100	–
10 nM	–	–	104	94.3	99.2	95.7	104	–
100 nM	–	–	101	105	109	102	98	–
0.1 µM	103	101	–	–	–	–	–	-0.02
0.3 µM	110	101	–	–	–	–	–	-0.22
1000 nM	–	–	94.3	106	102	96.2	112	–
1 µM	111	96	–	–	–	–	–	-0.15
3 µM	102	102	–	–	–	–	–	-0.17
10000 nM	–	–	66	112	66.5	22.9	73.8	–

Details	drug sensitivity score	relative viability EC50 [µM]
Caco-2 [7]	2.5	–
Calu-3 [8]	0	–
Calu-3 [14]	–	> 10
HepG2 [10]	1.4	–
U2OS [6]	4.8	–
U2OS [13]	–	2.78
Vero E6 [9]	0.7	–

drug-induced phospholipidosis [%], A549-ACE2
Details	0.3 µM	0.833333 µM	3.33333 µM	6.66667 µM	10 µM	30 µM
24 h	4.15	-1.47	2.19	13.3	16	25
48 h	3.38	2.04	3.48	15.8	19.9	–
72 h	0.729	-0.638	-0.912	5.37	8.38	–

Nc1nc(O)c2[nH]nnc2n1 [azaguanine-8]
Details	SARS-CoV-2 infection rate, [12] [%]	cell count, [11] [%]	cell viability, Caco-2 [2] [%]	cell viability, Calu-3 [3] [%]	cell viability, HepG2 [5] [%]	cell viability, U2OS [1] [%]	cell viability, Vero E6 [4] [%]	morphology score, [15]
1 nM	–	–	104	94.4	102	102	104	–
10 nM	–	–	105	94	100	95.4	103	–
100 nM	–	–	93.5	89.5	100	102	105	–
0.1 µM	106	102	–	–	–	–	–	0.12
0.3 µM	91	104	–	–	–	–	–	0.27
1000 nM	–	–	91.9	89.5	106	97.6	103	–
1 µM	96	102	–	–	–	–	–	0.08
3 µM	94	102	–	–	–	–	–	0.33
10000 nM	–	–	91.1	81.2	29.6	89.2	52	–

Details	drug sensitivity score	relative viability EC50 [µM]
Caco-2 [7]	0	–
Caco-2 [16]	–	> 10
Calu-3 [8]	1.4	–
Calu-3 [14]	–	> 10
HepG2 [10]	3.4	–
HepG2 [17]	–	3.6
U2OS [6]	0.1	–
U2OS [13]	–	> 10
Vero E6 [9]	2.3	–

drug-induced phospholipidosis [%], A549-ACE2
Details	0.3 µM	0.833333 µM	3.33333 µM	6.66667 µM	10 µM	30 µM
24 h	2.81	-0.65	-1.26	-0.07	3.53	16.6
48 h	3.95	-1.52	-4.45	-3.51	-4.77	–
72 h	5.19	-2.08	-1.89	-4.08	-4.93	–

NS(=O)(=O)C#Cc1ccccc1 [pifithrin-mu]
Details	SARS-CoV-2 infection rate, [12] [%]	cell count, [11] [%]	cell viability, Caco-2 [2] [%]	cell viability, Calu-3 [3] [%]	cell viability, HepG2 [5] [%]	cell viability, U2OS [1] [%]	cell viability, Vero E6 [4] [%]	morphology score, [15]
1 nM	–	–	97.2	107	104	99.8	100	–
10 nM	–	–	100	99	89.3	97.5	95.5	–
100 nM	–	–	102	98.4	91.1	97.2	94.4	–
0.1 µM	104	98	–	–	–	–	–	-0.1
0.3 µM	106	98	–	–	–	–	–	-0.19
1000 nM	–	–	92.4	111	104	95.7	98.4	–
1 µM	90	101	–	–	–	–	–	0.29
3 µM	101	99	–	–	–	–	–	-0.06
10000 nM	–	–	37.8	89.7	54.3	20	77.9	–

Details	drug sensitivity score	relative viability EC50 [µM]
Caco-2 [7]	4.7	–
Caco-2 [16]	–	2.17
Calu-3 [8]	0	–
Calu-3 [14]	–	> 10
HepG2 [10]	2	–
U2OS [6]	5	–
U2OS [13]	–	2.75
Vero E6 [9]	1	–
Vero E6 [18]	–	> 10

drug-induced phospholipidosis [%], A549-ACE2
Details	0.3 µM	0.833333 µM	3.33333 µM	6.66667 µM	10 µM	30 µM
24 h	2.1	0.49	1.97	5.31	12.1	-1.3
48 h	2.3	-0.12	0.23	3.31	7.4	–
72 h	3.99	-0.0686	0.345	0.553	1.82	–

O=P(O)(O)C(O)(Cn1ccnc1)P(=O)(O)O [zoledronic-acid]
cell viability [%]
Details	Caco-2 [2]	Calu-3 [3]	HepG2 [5]	U2OS [1]	Vero E6 [4]
1 nM	98.2	110	101	96.5	99.7
10 nM	95.1	100	98.7	96.2	104
100 nM	96.8	91.9	95.2	100	100
1000 nM	93.2	93.4	97.7	99.3	98.9
10000 nM	91.6	97.7	94.1	97.2	99.3

Details	drug sensitivity score	relative viability EC50 [µM]
Caco-2 [7]	0	–
Caco-2 [16]	–	> 10
Calu-3 [8]	0	–
Calu-3 [14]	–	> 10
HepG2 [10]	0	–
HepG2 [17]	–	> 10
U2OS [6]	0	–
U2OS [13]	–	> 10
Vero E6 [9]	0	–
Vero E6 [18]	–	> 10
